{
  "source": "patent US20250213697A1",
  "about": "“INJECTABLE AND/OR SPRAYABLE, IN SITU POLYMERIZABLE COLLAGEN COMPOSITIONS FOR SUSTAINED DELIVERY OF THERAPEUTICS” (priority 2023, published 2025)",
  "assay_type_in_all_cases": "physicochemical",
  "key": {"[1]": {"assay": "In vitro polymerization test of collagen/antibiotic compositions injected into WFI", "conditions": "27-gauge needle", "method": "50 mg lyophilized and powdered (by mortar and pestle) Voriconazole was mixed with 200 μL of in situ polymerizable collagen solution prepared according to Example 1 by passing the powder into the collagen solution using two syringes attached with a female-female adaptor. The mixture appeared clear and transparent (FIG. 4A). Aliquots were injected into water for injection (WFI) using a 27-gauge needle. A control sample composed of in situ polymerizable collagen solution only was also injected into WFI.\nTwo other antibiotics, Cefuroxime and Vigamox, were mixed to in situ polymerizable collagen using the same method used for adding Voriconazole to the collagen to form a collagen/antibiotic composition, respectively. […] The appearance of the mixture depends on the solubility of the antibiotics."}, "[2]": {"assay": "Film formation of sprayed in situ polymerizable collagen on skin or skin wounds", "conditions": "EGF 5,000-20,000 IU/mL", "method": "The sprayable in situ polymerizable collagen was prepared by mix in situ polymerizable collagen prepared in Example 1 with PBS at volume ratio of 2:1. After mixing by stirring at 50 rpm for 10 min, the gel was centrifuge to remove the bubbles. The sprayable in situ polymerizable collagen was less viscous with better flowability and placed in a spray bottle and still remained transparent under room temperature. […] The in situ polymerizable collagen solution with EGF was sprayed to skin wounds through spray bottle and formed a film to cover the wound within 120 sec, providing a wet healing environment and continuous EGF delivery to accelerate skin healing or improve skin condition."}, "[3]": {"assay": "In vitro release of latanoprost from in situ polymerizable collagen gels into physiological saline (HPLC)", "method": "Latanoprost (13,14-dihydro-17-phenyl-18,19,20-trinor-prostaglandin F2a-1-isopropyl ester) was obtained from Sigma-Aldrich. Soluble, pepsin digested, bovine collagen for drug delivery formulations was purchased from Advanced Biomatrix. In situ polymerizable collagen was prepared according to Example 1 by extensive dialysis of salt precipitated collagen against 0.035M EDTA with step-wise increase in pH to 7.5. Latanoprost was dissolved in 95% ethanol and added to polymerizable collagen solution to provide gel depots containing 250 μg latanoprost/100 μL collagen. The solutions were incubated in 1.0 mL of physiological saline at 37° C. The entire 1.0 mL volume was removed at time periods ranging from 1 day to 174 days and replaced with 1.0 mL of fresh saline. Latanoprost concentration in saline aliquots was measured by HPLC analysis (Millennium Research Laboratories).\nIn situ polymerizable collagen gels provided sustained in vitro release of Latanoprost for more than 30 days."}, "[4]": {"assay": "In vitro release of Compstatin from in situ polymerizable collagen", "method": "Delivery of a complement peptide-Compstatin from in situ polymerizable collagen prepared according to Example 1 was studied in vitro. In vitro release was measured for 6 weeks to ascertain the optimum collagen formulation."}, "[5]": {"assay": "Short-term controlled release of lidocaine from collagen gel into 0.9% NaCl (HPLC)", "conditions": "gel in 0.9% NaCl, 37° C., 80 RPM; FIG. 6", "experimental": "One third of the same volume of collagen solution of a lidocaine sterile solution (0.9% Lidocaine, 7% Mannitol, 80 mM EDTA-2Na, 0.05M Na2CO3 and 0.05M NaHCO3) was added to collagen. 2 mL final mixed collagen solution was incubated under 37° C. to form a gel and put into 20 mL 37° C. 0.9% NaCl solution with a stir bar stirring at 80 RPM. At 10 min, 20 min, 30 min, 60 min, 90 min, and 120 min, 2 mL NaCl solution was collected to test lidocaine concentration and additional 2 mL 0.9% NaCl solution was replenished. HPLC method was used to measured lidocaine concentration and calculated to the percentage release of the lidocaine in collagen gel."}},
  "data": [
    {"molecule": "CO/N=C(\\C(=O)N[C@@H]1C(=O)N2C(C(=O)O)=C(COC(N)=O)CS[C@H]12)c1ccco1", "note": "[Cefuroxime]", "values": [
      {"measurement": "collagen fibril formation", "setting": "[1]", "value": "do not blocking the fibril formation"}
    ]},
    {"molecule": "EGF: Epidermal Growth Factor lyophilized powder dissolved in in situ polymerizable collagen solution, 5,000-20,000 IU/mL", "values": [
      {"measurement": "time to form a film covering the wound", "setting": "[2]", "value": "≤ 120", "unit": "s"}
    ]},
    {"molecule": "CC(C)OC(=O)CCC/C=C\\C[C@@H]1[C@@H](CC[C@@H](O)CCc2ccccc2)[C@H](O)C[C@@H]1O", "note": "[Latanoprost, 13,14-dihydro-17-phenyl-18,19,20-trinor-prostaglandin F2a-1-isopropyl ester]", "values": [
      {"measurement": "duration of sustained in vitro release of Latanoprost", "setting": "[3]; in situ polymerizable collagen gels, saline 37° C.", "value": "more than 30 days"},
      {"measurement": "initial release of Latanoprost", "setting": "[3]; polymerizable gels added directly to saline solution", "value": "large initial release"},
      {"measurement": "sustained release of Latanoprost, average", "setting": "[3]; polymerizable gels added directly to saline solution, 250 μg latanoprost/100 μL collagen, 37° C.", "value": 0.54, "unit": "µg/day"},
      {"measurement": "initial release of Latanoprost", "setting": "[3]; polymerizable gels partially pre-polymerized", "value": "reduced initial release"},
      {"measurement": "average sustained release rate of Latanoprost", "setting": "[3]; polymerizable gels partially pre-polymerized before placing in solution, 250 μg latanoprost/100 μL collagen, 37° C.", "value": 1.4, "unit": "µg/day"}
    ]},
    {"molecule": "CC[C@H](C)[C@H](N)C(=O)N[C@H]1CSSC[C@@H](C(=O)N[C@H](C(N)=O)[C@@H](C)O)NC(=O)[C@H](CCCN=C(N)N)NC(=O)[C@H](Cc2cnc[nH]2)NC(=O)[C@H](Cc2cnc[nH]2)NC(=O)CNC(=O)[C@H](Cc2c[nH]c3ccccc23)NC(=O)[C@H](CC(=O)O)NC(=O)[C@H](CCC(N)=O)NC(=O)[C@H](C(C)C)NC(=O)[C@H](C(C)C)NC1=O", "note": "[Compstatin]", "values": [
      {"measurement": "duration of initial burst", "setting": "[4]", "value": 4, "unit": "days"},
      {"measurement": "duration of sustained release", "setting": "[4]", "value": 6, "unit": "weeks"},
      {"measurement": "release kinetics", "setting": "[4]; measured for 6 weeks", "value": "bi-phasic release kinetics"}
    ]},
    {"molecule": "CCN(CC)CC(=O)Nc1c(C)cccc1C", "note": "[lidocaine]", "values": [
      {"measurement": "controlled release of lidocaine", "setting": "[5]", "value": "within two hours"}
    ]}
  ]
}
